Patent publication US20110110886A1, “SMALL MOLECULE INHIBITORS OF AUTOTAXIN AND METHODS OF USE” (Yale University, priority 2008, published 2011)
Several values for one entry are separate records, joined by “and”; a condition that tells them apart may be missing. Identical values can stand only once. Like-named read-outs stand apart in the source and are kept apart here. Each block holds one compound with its values, some of them ahead of it.

Legend:
ATX lyso-PLD activity = biological target: T1, ATX lyso-PLD activity (Homo sapiens, UniProt Q13822); test: Time course assay of ATX lyso-PLD activity (FS-3 fluorescent product) with or without 10 μM compound over 30 minutes; format: biochemical; conditions: 10 μM inhibitor, 30 minute interval, compared with NSC 48300
T1 construct: consistent with a mature, glycosylated form of the enzyme; TEV cleavage site (C); 9-His (C); 6-His (C); made in house; host or cells: High Five insect cells (baculovirus, p-DEST-8)
Procedure: C. Structure of hexachlorophene, merbromin. Bithionol and their analogs -2,2′-Methylenebis(4-chlorophenol), Eosin Y and RJC 03297, respectively. D. Structure of NSC 48300 and its analogs. […] The assay conditions are 300 nM ATX in the presence or absence of 10 μM compound over 30 minutes.
Inhibitor screen: High throughput screens were performed against two libraries: the GenPlus library of 960 compounds (NINDS Custom Collection, MicroSource Discovery systems) and the NCI Diversity Set (1990 compounds, see http://dtp.nci.nih.gov/branches/dscb/repo_open.html). The screens were performed at the Yale Center for Chemical Genomics utilizing a Tecan Aquarius robot in combination with an Aquarius liquid handler and a Freedom EVO Workstation. A V&P Scientific 384 pin tool transferred small molecules (10 mM stock) from library plates into the optically clear, 384 well assay plates, and an Aquarius liquid handling robot transferred protein into the individual wells. The assays were performed in a total volume of 50 μL in assay buffer (50 mM Tris, 140 mM NaCl, 1 mM MgCl2, and 5 mM CaCl2, pH 8.0). Absorbance of p-nitrophenylate, the product of ATX's PDE activity with pNP-TMP (discussed below) was measured at 405 nm over a period of 12 hours. To monitor lysophospholipase-D activity, the fluorescence of FS-3 (625 nM or 4 μM) was monitored (λex=480 nm, λem=535 nm) in assay buffer over a period of 30 minutes in the presence of 300 nM ATX and 10 μM compound. The assay was evaluated using a statistical Z′ analysis, a quantitative measure to determine assay robustness for single point analysis on a high throughput screening platform. The Z′ analysis was performed from 32 maximum control values (c+) and 32 minimum controls (c−) on each plate. Assays consistently performed with Z′ factors of 0.75-0.85, higher than the minimum 0.5 considered robust.
Inhibition of ATX lyso-PLD activity by several NSC48300 analogs was qualitatively compared in a time course assay by measuring the production of fluorescent product in the presence or absence of 10 µM inhibitor over a 30 minute interval.

[1] = biological target: T2, ATX (recombinant full-length human ATX), PDE activity (Homo sapiens, UniProt Q13822); test: Steady-state ATX phosphodiesterase (PDE) activity with pNP-TMP, absorbance 405 nm; format: biochemical; conditions: for Ki: 25° C., read-out: KI (dissociation equilibrium constant for inhibitor binding), ATX PDE activity
T2 construct: consistent with a mature, glycosylated form of the enzyme; TEV cleavage site (C); 9-His (C); 6-His (C); made in house; host or cells: High Five insect cells (baculovirus, p-DEST-8)
Text: Protein expression and purification: The full length human NPP2 gene (NCBI accession #BC034961) followed by a C-terminal TEV cleavage site and a 9-His and 6-His purification tag was cloned and transferred into a p-DEST-8 baculovirus shuttle vector (Invitrogen), and bacmid DNA was generated by standard methods. The DNA sequence and correct transposition of the genes was verified by PCR, and recombinant full-length human ATX was expressed in High Five insect cells using standard methods. Three days post infection, the supernatant was adjusted to a final concentration of 50 mM Tris pH 8.0, 5 mM CaCl2, and 1 mM NiSO4 and stirred for 10 min. at room temperature. The resulting precipitant was removed by centrifugation (4,420×g for 30 minutes) and filtration ([…]), and the supernatant was concentrated using a Pall concentration system to approximately 250 mL. The cell media was passed over a nickel affinity column (5 mL, Fastflow resin), equilibrated in binding buffer (20 mM Tris pH 8.0, 300 mM NaCl, 20 mM imidazole, and 20% ethylene glycol) at 4° C., washed with 10 column volumes of binding buffer, and then eluted with binding buffer supplemented with 300 mM imidazole. Purified ATX was concentrated to approximately 10 mg mL^−1, and dialyzed into the appropriate assay buffer.
Steady-state enzyme assays: Phosphodiesterase activity of ATX (75-100 nM) was measured by absorbance (λ=405 nm) on a SpectraMax 250 plate reader at 25° C. with the substrate pNP-TMP [36]. Reactions were run in assay buffer containing 10% DMSO (v/v) and 1 mg mL^−1 BSA (hexachlorophene, merbromin, and bithionol) or without BSA (NSC 48300, 2,2′-Methylenebis(4-chlorophenol), eosin Y, and RJC 03297) in a total volume of […]. The uncatalyzed reaction rate was ≦10^−7 s^−1 (data not shown).
The steady-state rates (v) of product formation were obtained by fitting the time courses of absorbance or fluorescence change to linear functions. Absorbance units were converted to p-nitrophenylate concentration using ε405 of 18.5 mM^−1 cm^−1 [39] and a measured path length of 0.494 cm. FS-3 hydrolysis product formation was quantitated in arbitrary fluorescence units.
(§1) The Michaelis constants (KM) and the catalytic turnover rate constants (kcat) were obtained by fitting the [substrate]-dependence of v to a rectangular hyperbola in the form of the Briggs-Haldane equation: […]
(§2) in which [S] is [pNP-TMP] or [FS-3]. Inhibitors were treated as reversible inhibitors and analyzed according to the general steady-state linear enzyme inhibitor scheme:
(§3) in which E is ATX, S is pNP-TMP or FS-3 substrate, P are the hydrolysis products, and K1 is the dissociation equilibrium constant for inhibitor binding. The values of α and K1 were obtained by fitting the steady-state rates of product formation (v) to the general inhibition equation: […]
(§4) in which [I] is the inhibitor concentration, kcat is the maximum catalytic turnover rate, and KS is the Michaelis constant of the substrate obtained in the absence of inhibitor.
(§5) The type of inhibition (competitive, noncompetitive, or uncompetitive) depends on the value of α.
(§6) The type of inhibition was assigned if the difference between the r^2 values of the fits to the general inhibition equation (Eq 2) and the specific inhibition (i.e. competitive, noncompetitive or uncompetitive) equations was less than 0.01.

[2] = biological target: T3, ATX (recombinant full-length human ATX), lysoPLD activity (Homo sapiens, UniProt Q13822); test: Steady-state ATX lysoPLD activity with fluorescent LPC analogue FS-3; format: biochemical; conditions: for inhibition of ATX lysoPLD activity by GenPlus screen inhibitor analogs / type of inhibition of ATX lysoPLD activity: substrate FS-3; for Ki: substrate FS-3, 37° C.
T3 construct: consistent with a mature, glycosylated form of the enzyme; TEV cleavage site (C); 9-His (C); 6-His (C); made in house; host or cells: High Five insect cells (baculovirus, p-DEST-8)
Procedure: Protein expression and purification: The full length human NPP2 gene (NCBI accession #BC034961) followed by a C-terminal TEV cleavage site and a 9-His and 6-His purification tag was cloned and transferred into a p-DEST-8 baculovirus shuttle vector (Invitrogen), and bacmid DNA was generated by standard methods. […] Three days post infection, the supernatant was adjusted to a final concentration of 50 mM Tris pH 8.0, 5 mM CaCl2, and 1 mM NiSO4 and stirred for 10 min. at room temperature. […] Purified ATX was concentrated to approximately 10 mg mL^−1, and dialyzed into the appropriate assay buffer.
Fluorescence was measured (λex=485 nm, λem=520 nm) on a SpectraMax Gemini XPS at 37° C. under buffer conditions similar to the PDE assays but lacking BSA. […] The spontaneous reaction rates were subtracted from the enzyme catalyzed rates.
The steady-state rates (v) of product formation were obtained by fitting the time courses of absorbance or fluorescence change to linear functions. […] FS-3 hydrolysis product formation was quantitated in arbitrary fluorescence units.
as §1, §2, §3, §4, §5, §6

[3] = test system: human melanoma cell line (A2058); test: Boyden chamber cell migration assay, melanoma cells; format: cell-based; conditions: for inhibition of ATX-induced stimulation of melanoma cell motility: A2058, 50 nM ATX, 4 hours
Procedure: (§7) All cell media was supplemented with 10% (v/v) fetal calf serum (FCS) (Gibco) and 1% (v/v) L-glutamine (Gibco) and grown at 37° C. in a humidified atmosphere containing 5% CO2.
The assay chambers are divided by a gelatin-coated membrane with […] pores (NeuroProbe). […] The chambers were then incubated at 37° C. for 4 hours, after which the filters were removed, fixed in 100% methanol, stained with a DiffQuick solution, and mounted onto glass slides. Non-migrating cells were removed from the membrane by scraping the top surface. The cells were quantitated by counting the cell number per high powered field in the various wells. Treatments were compared using a chi squared test.

A2058 melanoma cells = test: Matrigel cell invasion assay, melanoma cells; format: cell-based, human; conditions: for inhibition of ATX-induced stimulation of melanoma cell invasion: A2058, 50 nM ATX
Procedure: as §7
Cell invasion assays: Matrigel matrix (1 mg/ml, Becton Dickenson) was added to […] gelatin-coated membranes placed in cell culture inserts (BD Falcon) and allowed to set for 24 hours at room temperature. The inserts were placed into companion 24 well plates (BD Falcon), and chemo-attractants (ATX ±inhibitors) and/or controls were added to the bottom of the wells. Cells (1×10^6) were added to the inserts and incubated for 3 hours at 37° C. Following incubation, the inserts were removed, fixed in 100% methanol, stained with DiffQuick solution, and mounted on glass slides. Non-invading cells were removed by scraping away the matrigel, and migrating cells were quantitated by counting cell number per high-powered field.

[4] = test system: adenocarcinoma cell motility; conditions: reported in ref. [40]; read-out: EC50, inhibition of adenocarcinoma cell motility; cited from earlier work
[5] = ATX-dependent hydrolysis, fit to Eq. 1

Compound: COC(=O)c1ccc(Cc2ccc(C(=O)OC)cc2)cc1 [NSC 86629]
qualitative effect of structural change on inhibition of ATX lyso-PLD activity (ATX lyso-PLD activity): eliminates inhibition

Compound: Cc1cn([C@H]2C[C@H](O)[C@@H](COP(=O)(O)Oc3ccc([N+](=O)[O-])cc3)O2)c(=O)[nH]c1=O [pNP-TMP, p-Nitrophenyl 5′-thymidine monophosphate]
Km [1, 5]: 1400 µM
kcat for pNP-TMP hydrolysis [1, 5]: 1.6 s^−1 and 1.6 (±0.1) s^−1

Compound: Oc1ccc(Cl)cc1Cc1cc(Cl)ccc1O [2,2′-Methylenebis(4-chlorophenol)]
type of inhibition of ATX PDE activity ([1]; substrate pNP-TMP): noncompetitively
Ki ([1]; substrate pNP-TMP): 104 µM
inhibition of ATX lysoPLD activity by GenPlus screen inhibitor analogs [2]: only Eosin Y (an analogue of merbromin) inhibits ATX lysoPLD activity

type of inhibition of ATX PDE activity ([1]; substrate pNP-TMP): competitively
Ki ([1]; substrate pNP-TMP): 9.6 µM
inhibition of ATX lysoPLD activity by GenPlus screen inhibitor analogs [2]: inhibits ATX lysoPLD activity
type of inhibition of ATX lysoPLD activity [2]: noncompetitive
Ki [2]: 116 µM
Compound: O=C1OC2(c3ccccc31)c1cc(Br)c(O)c(Br)c1Oc1c2cc(Br)c(O)c1Br [Eosin Y]

Compound: Oc1c(Cl)cc(Cl)c(Cl)c1Cc1c(O)c(Cl)cc(Cl)c1Cl [Hexachlorophene]
type of inhibition of ATX PDE activity ([1]; substrate pNP-TMP): competitive inhibition
α value from general steady-state inhibition equation (Eq. 2) ([1]; substrate pNP-TMP): > 45
Ki ([1]; substrate pNP-TMP): 15 µM
type of inhibition of ATX lysoPLD activity [2]: competitive inhibitor
Ki [2]: 68 µM
inhibition of ATX-induced stimulation of melanoma cell motility [3]: inhibited in a dose-dependent manner
inhibition of ATX-induced stimulation of melanoma cell invasion (A2058 melanoma cells): inhibited in a dose-dependent manner

Km [2, 5]: 4.5 µM
Compound: Fluorescent Substrate-3 [FS-3]

Compound: lysophosphatidic acid [LPA]
increase in number of invading cells per hpf (A2058 melanoma cells; A2058, ATX (50 nM) or LPA (75 nM)): 3.5 fold

Compound: Cc1ccc2c(c1)C(=O)C1(O)CCN(c3ccccc3)C1=N2 (stereo not shown) [Blebbistatin]
EC50 ([3]; A2058, 75 nM LPA, read-out: EC50, inhibition of cell motility with addition of LPA): 27 µM
EC50 ([3]; A2058, in the presence of 50 nM ATX, read-out: EC50, inhibition of ATX-induced cell motility): 54 µM
EC50 [4]: ~50 µM

Compound: O=[As](O)(O)c1ccc(-c2ccc([As](=O)(O)O)cc2)cc1 [NSC 13792]
qualitative effect of structural change on inhibition of ATX lyso-PLD activity (ATX lyso-PLD activity): eliminates inhibition

Compound: O=C([O-])c1ccccc1-c1c2cc(Br)c(=O)cc-2oc2[c]([Hg+])c([O-])c(Br)cc12.[Na+].[Na+].[OH-] [Merbromin]
type of inhibition of ATX PDE activity ([1]; substrate pNP-TMP): noncompetitive inhibition
Ki ([1]; substrate pNP-TMP): 43 µM
inhibition of ATX-induced stimulation of melanoma cell motility [3]: inhibited in a dose-dependent manner
inhibition of ATX-induced stimulation of melanoma cell invasion (A2058 melanoma cells): inhibited in a dose-dependent manner
